Data as given in BigSolDB 2.1.

Structure (SMILES): O=c1cc(-c2ccc(O)c(O)c2)oc2cc(O)cc(O)c12
- solubility (mole fraction) (in ethanol, 273.2 K): 0.000755
- solubility (mole fraction) (in ethanol, 283.2 K): 0.00117
- solubility (mole fraction) (in ethanol, 293.2 K): 0.00174
- solubility (mole fraction) (in ethanol, 303.2 K): 0.00205
- solubility (mole fraction) (in ethanol, 313.2 K): 0.00271
- solubility (mole fraction) (in ethanol, 323.2 K): 0.00318
- solubility (mole fraction) (in water, 273.2 K): 2.06e-07
- solubility (mole fraction) (in water, 283.2 K): 2.72e-07
- solubility (mole fraction) (in water, 293.2 K): 3.49e-07
- solubility (mole fraction) (in water, 303.2 K): 4.68e-07
- solubility (mole fraction) (in water, 313.2 K): 7.3e-07
- solubility (mole fraction) (in water, 323.2 K): 9.48e-07
